{"source": "paper PMC12466602", "about": "“Novel Hybrid Peptide DEFB126 (1-39)-TP5 Inhibits LPS-Induced Inflammatory Responses and Oxidative Stress by Neutralizing LPS and Blocking the TLR4/MD2-NFκB Signaling Axis” (Antioxidants, 2025)", "molecules": {"B1": {"name": "hybrid peptide DEFB126 (1-39)-TP5 (peptide)", "peptide": "NWYVKKCLNDVGICKKKCKPEEMHVKNGWAMCGKQRDCCRKDVY", "notes": "DEFB126 (1-39): residues 21-59 of human β-defensin 126 (111 amino acids); thymopentin (TP5), the core active fragment of thymopoietin, full-length TP5; whether disulfide bonds form is left open by the authors; also called DTP; DTP peptide; source: synthetic peptide (KangLong Biochemistry, 95% purity)"}}, "key": {"LPS-induced sepsis model": {"test_system": "LPS-induced sepsis model", "assay": "Murine LPS-induced sepsis / liver injury model", "type": "in vivo, C57BL/6 mice", "conditions": "mice", "description": "Male C57BL/6 mice (6–8 weeks of age) were purchased from Charles River (Beijing, China). During the experiments, mice were housed in a specific-pathogen-free (SPF) environment with a temperature of 22 ± 1 °C and a relative humidity of 55 ± 10%. All the animal experiments were conducted with the approval of the Animal Care and Use Committee of China Agricultural University.\nThe mice were randomly divided into five groups of 12: control, LPS (E. coli O111: B4, Sigma-Aldrich, St. Louis, MO, USA), DEFB126 + LPS, TP5 + LPS, and DTP + LPS. The corresponding peptide (10 mg/kg) was injected intraperitoneally during the pretreatment stage. The control group was synchronized with the LPS group by injecting an equal amount of saline.\nDuring the first 7 days of the experiment, each group received the above treatments once a day. On day 7, the LPS model group and the peptide pretreatment groups (DEFB126 + LPS, TP5 + LPS, and DTP + LPS) were injected intraperitoneally with 20 mg/kg of LPS to establish a sepsis model. The control group was injected with an equal volume of saline. Sixteen hours after the LPS injection, the mice were euthanized, and liver tissues and blood samples were collected. The serum was then separated by centrifugation and stored at −80 °C for measurement.\nMouse liver tissues were fixed with 4% paraformaldehyde, embedded in paraffin, and sliced continuously on a rotary slicer (Leica, RM2235, Nußloch, Germany) at a thickness of 5 μm. After dewaxing and rehydration, the tissues were subjected to Hematoxylin-Eosin (H&E) contrast staining. LPS-induced liver injury was evaluated according to a previous study. The liver injury score was graded on a 0- to 3-point scale: 0, no injury; 1, mild injury with cytoplasmic vacuolation; 2, moderate to severe injury consisting of extensive loss of intercellular borders and nuclear pyknosis; and 3, severe necrosis consisting of liver hemorrhage and neutrophil infiltration.\nThe levels of tumor necrosis factor (TNF)-α, interleukin (IL)-6, and IL-1β in the serum of mice were detected using commercial ELISA kits (eBioscience, San Diego, CA, USA). Commercial reagent kits (Nanjing Jiancheng Bioengineering Institute, Nanjing, China) were used to detect the levels of serum alanine amino transferase (ALT) and aspartate amino transferase (AST)."}, "[1]": {"assay": "LPS neutralization, Chromogenic End-point Tachypleus Amebocyte Lysate (CE TAL) assay", "type": "biochemical, E. coli", "conditions": "LPS 1.0 U/mL, peptide 0 to 128 μg/mL, 15 min at 37 °C, OD540; mean ± SD of 3 independent experiments", "description": "The LPS-neutralizing ability of the peptides was assessed through a quantitative Chromogenic End-point Tachypleus Amebocyte Lysate (CE TAL) assay (Xiamen Bioendo Technology Co., Xiamen, China). LPS (final concentration 1.0 U/mL; E. coli, O55:B5) was incubated with different concentrations of the peptides (final concentration 0 to 128 μg/mL) for 15 min at 37 °C. Then, the mixtures were incubated with TAL assay reagent at 37 °C for 6 min, and the optical density at 540 nm was measured."}, "RAW264.7 cells": {"test_system": "RAW264.7 cells", "assay": "ROS generation (DCFH2-DA, fluorescence microscopy and flow cytometry)", "type": "cell-based", "conditions": "RAW264.7, LPS 100 ng/mL 1 h, then DTP 12 h", "description": "RAW264.7 cells (1 × 10^5 cells/mL cell density) were incubated with LPS (100 ng/mL) at 37 °C for 1 h. After that, cells were treated with DTP at 37 °C for 12 h. The cells were then stained with 5 μM DCFH2-DA for 30 min at 37 °C in the dark. The cells were then washed extensively with PBS before analysis by fluorescence microscope and flow cytometry."}, "[2]": {"test_system": "phosphorylation of IKK-β, IκB-α and NF-κB", "assay": "Western blot of NF-κB signaling pathway", "type": "cell-based", "conditions": "LPS-stimulated", "description": "Samples were fractionated into cytoplasmic and nuclear components using the NR-PER Nuclear and Cytoplasmic Protein Extraction Kit (Thermo Fisher Scientific Inc., Waltham, MA, USA). Protein levels in each fraction were determined via a bicinchoninic acid (BCA) assay (KeyGEN Biotech, Nanjing, China). Subsequently, protein fractions were separated by 10% SDS-polyacrylamide gel electrophoresis and transferred to methanol-activated PVDF membranes (Bio-Rad, Hercules, CA, USA). After membrane transfer, the membranes were blocked with 5% skimmed milk, followed by incubation with phosphorylated antibodies: p-IKK-β, p-IкB-α, p-NF-кB (p-p65), and GAPDH (Santa Cruz), with shaking overnight at 4 °C. After TBST washing, the membranes were incubated with HRP-labeled species-matched secondary antibody (HuaAn Biologicals, Hangzhou, China) for 60 min at room temperature. The density of specific proteins was quantified using the ChemiDoc MP imaging system (Bio-Rad, Hercules, CA, USA)."}, "RAW264.7 macrophages": {"test_system": "RAW264.7 macrophages", "assay": "CCK-8 cell viability assay", "conditions": "24 h; for cell survival rate: RAW264.7, 10 μg/mL peptide, CCK-8, OD450", "procedure": "RAW 264.7 cells were maintained in DMEM medium containing 10% (v/v) fetal bovine serum and 1% (v/v) penicillin-streptomycin at 37 °C, 5% CO2.\nRAW264.7 cells (3 × 10^4 cells/mL) were plated in 96-well plates in 100 μL DMEM overnight and then cultured in fresh medium containing a 2-fold concentration of peptide for another 24 h. Add 10 μL of CCK-8 solution to each well and incubate for 4 h away from light. Then, the optical density at 450 nm was measured using a microplate reader. Cell viability was determined byCell viability (%) = (OD450 (sample)/OD450 (control)) × 100%(1) where OD450 (sample) is the absorbance at 450 nm of the cells with peptides treated and OD450 (control) is the absorbance at 450 nm of the cells without peptides treated."}, "[3]": {"assay": "Ex vivo stability in plasma (HPLC)", "conditions": "rat plasma, peptide 10 µg/mL, 37 °C, linear regression of log concentration-time, mean ± SD of 3 biological replicates", "procedure": "(§1) The above peptide solutions were incubated at 37 °C for varying lengths of time and then immediately transferred to pre-cooled test tubes containing 1 mL of acidic acetone (hydrochloric acid/acetone/H2O, v/v/v 1:40:5) to terminate the reaction. The concentration of the hydrochloric acid solution before dilution is 50 mM. The precipitate was subsequently separated by centrifugation at 20,000× g for 20 min at 4 °C. The obtained precipitates were dried in vacuo and then dissolved in 0.5 mL of 1 M acetic acid. Peptide analysis was conducted according to the protocol for the study of TP5 using HPLC [2]. Peptide half-lives were obtained by fitting a linear regression model based on logarithmic concentration-time."}, "in vitro": {"assay": "in vitro", "conditions": "rat, plasma", "procedure": "as §1"}, "[4]": {"target": "Toll-like receptor 4/myeloid differentiation factor 2 (TLR4/MD-2) complex (UniProt Q9QUK6 26-835; Q9JHF9 19-160, The source, species and construct of the SPR protein are not stated. Mouse is inferred from the docking receptor (PDB 2Z64) and the mouse models. Limits by convention: TLR4 extracellular domain and ma)", "sequence (Q9QUK6 26-835, chain 1 of 2)": "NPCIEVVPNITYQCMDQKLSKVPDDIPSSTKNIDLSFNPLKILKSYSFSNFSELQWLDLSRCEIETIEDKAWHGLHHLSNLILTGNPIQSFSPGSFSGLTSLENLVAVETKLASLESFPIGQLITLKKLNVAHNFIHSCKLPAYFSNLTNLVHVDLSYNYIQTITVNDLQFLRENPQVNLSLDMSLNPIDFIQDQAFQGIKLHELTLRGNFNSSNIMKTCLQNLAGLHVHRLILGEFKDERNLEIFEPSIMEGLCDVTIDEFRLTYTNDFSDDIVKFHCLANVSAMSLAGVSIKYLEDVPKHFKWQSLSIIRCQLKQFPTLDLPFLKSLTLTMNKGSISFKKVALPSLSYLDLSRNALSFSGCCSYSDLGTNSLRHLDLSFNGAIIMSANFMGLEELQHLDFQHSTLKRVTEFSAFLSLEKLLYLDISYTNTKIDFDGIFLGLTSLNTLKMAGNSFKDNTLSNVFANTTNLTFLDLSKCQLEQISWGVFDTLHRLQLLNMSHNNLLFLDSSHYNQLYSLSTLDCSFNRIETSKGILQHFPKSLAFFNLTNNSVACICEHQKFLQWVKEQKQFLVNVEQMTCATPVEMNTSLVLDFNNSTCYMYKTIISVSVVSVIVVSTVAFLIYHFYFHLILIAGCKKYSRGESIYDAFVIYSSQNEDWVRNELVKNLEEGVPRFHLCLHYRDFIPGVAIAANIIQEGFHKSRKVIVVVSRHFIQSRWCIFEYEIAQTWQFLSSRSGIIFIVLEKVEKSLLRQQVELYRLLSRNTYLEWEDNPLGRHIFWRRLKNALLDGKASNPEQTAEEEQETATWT", "sequence (Q9JHF9 19-160, chain 2 of 2)": "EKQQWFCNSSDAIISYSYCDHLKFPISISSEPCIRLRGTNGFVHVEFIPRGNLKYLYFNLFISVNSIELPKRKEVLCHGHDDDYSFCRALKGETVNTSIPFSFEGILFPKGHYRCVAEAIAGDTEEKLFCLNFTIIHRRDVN", "assay": "SPR; Biacore X100, CM5 chip, amine coupling; running buffer PBS with 0.05% Tween 20, 30 μL/min; peptide gradient 0, 1.25, 2.5, 5 and 10 mM as printed; 1:1 binding model; legend and results: TLR4/MD-2 immobilised and DTP flowed over (the methods say DTP was immobilised)", "conditions": "both partners purified"}, "[5]": {"conditions": "ELISA, peptide 10 mg/kg i.p. pretreatment, LPS, 16 h"}, "[6]": {"conditions": "peptide 10 mg/kg i.p. once daily pretreatment, then LPS i.p., 16 h after LPS"}, "[7]": {"conditions": "peptide 10 mg/kg i.p. pretreatment, LPS, 16 h"}}, "note": "Marks after values point to notes of the source that are not given here. Where no end group is shown, it is not given here.", "data": [{"molecule": "NWYVKKCLNDVGICKKKCKPEEMHVKNGWAMCGKQRDCCRKDVY (cysteines drawn unpaired) [DTP]", "values": [{"measurement": "serum IL-1β level", "setting": "LPS-induced sepsis model; [5]", "result": "significantly decreased"}, {"measurement": "serum IL-6 level", "setting": "LPS-induced sepsis model; [5]", "result": "significantly decreased"}, {"measurement": "serum TNF-α level", "setting": "LPS-induced sepsis model; [5]", "result": "significantly decreased"}, {"measurement": "liver injury score", "setting": "LPS-induced sepsis model; H&E, 0- to 3-point scale, peptide 10 mg/kg i.p. pretreatment, LPS, 16 h", "result": "significantly lower liver injury score than the LPS-treated, TP5-pretreated, and DEFB126-pretreated groups"}, {"measurement": "serum ALT level", "setting": "LPS-induced sepsis model; [6]", "result": "markedly lower than those in the TP5-pretreated group and DEFB126-pretreated group"}, {"measurement": "serum AST level", "setting": "LPS-induced sepsis model; [6]", "result": "markedly lower than those in the TP5-pretreated group and DEFB126-pretreated group"}, {"measurement": "liver CAT activity", "setting": "LPS-induced sepsis model; [7]", "result": "significantly reversed these effects"}, {"measurement": "liver GSH-Px activity", "setting": "LPS-induced sepsis model; [7]", "result": "significantly reversed these effects"}, {"measurement": "liver SOD activity", "setting": "LPS-induced sepsis model; [7]", "result": "significantly reversed these effects"}, {"measurement": "50% neutralization rate value", "setting": "[1]", "result": "approximately 11.58 ± 2.07 μg/mL"}, {"measurement": "LPS-induced ROS generation", "setting": "RAW264.7 cells", "result": "remarkably attenuated"}, {"measurement": "LPS-induced phosphorylation of IKK-β, IκB-α and NF-κB", "setting": "[2]", "result": "significantly inhibited"}, {"measurement": "cell survival rate", "setting": "RAW264.7 macrophages", "result": "higher than 80%"}, {"measurement": "cytotoxicity compared with parental peptides", "setting": "RAW264.7 macrophages; RAW264.7, 2-fold series of concentrations, CCK-8", "result": "significantly lower than DEFB126 and TP5"}, {"measurement": "t1/2 in plasma", "setting": "[3]", "result": "349 ± 69.17 ^a min"}]}, {"molecule": "NWYVKKCLNDVGICKKKCKPEEMHVKNGWAMCGKQRDCCVPAD (cysteines drawn unpaired) [DEFB126]", "values": [{"measurement": "half-life at 10 µg/mL", "setting": "in vitro", "result": "5.41 ± 0.885", "unit": "h"}, {"measurement": "cell survival rate", "setting": "RAW264.7 macrophages", "result": "higher than 80%"}]}, {"molecule": "B1", "values": [{"measurement": "Kd", "setting": "[4]", "result": 2.3, "unit": "µM"}]}]}
